Active and inactive are the calls of the source.
Assays:
Hexokinase HKDC1 = molecular target: T1, Hexokinase HKDC1 (Homo sapiens, UniProt Q2TB90); assay: inhibition of HKDC1 glucose phosphorylation – biochemical, W721R variant, dose response (AID 504729); format: functional
T1 sequence (Q2TB90 whole entry): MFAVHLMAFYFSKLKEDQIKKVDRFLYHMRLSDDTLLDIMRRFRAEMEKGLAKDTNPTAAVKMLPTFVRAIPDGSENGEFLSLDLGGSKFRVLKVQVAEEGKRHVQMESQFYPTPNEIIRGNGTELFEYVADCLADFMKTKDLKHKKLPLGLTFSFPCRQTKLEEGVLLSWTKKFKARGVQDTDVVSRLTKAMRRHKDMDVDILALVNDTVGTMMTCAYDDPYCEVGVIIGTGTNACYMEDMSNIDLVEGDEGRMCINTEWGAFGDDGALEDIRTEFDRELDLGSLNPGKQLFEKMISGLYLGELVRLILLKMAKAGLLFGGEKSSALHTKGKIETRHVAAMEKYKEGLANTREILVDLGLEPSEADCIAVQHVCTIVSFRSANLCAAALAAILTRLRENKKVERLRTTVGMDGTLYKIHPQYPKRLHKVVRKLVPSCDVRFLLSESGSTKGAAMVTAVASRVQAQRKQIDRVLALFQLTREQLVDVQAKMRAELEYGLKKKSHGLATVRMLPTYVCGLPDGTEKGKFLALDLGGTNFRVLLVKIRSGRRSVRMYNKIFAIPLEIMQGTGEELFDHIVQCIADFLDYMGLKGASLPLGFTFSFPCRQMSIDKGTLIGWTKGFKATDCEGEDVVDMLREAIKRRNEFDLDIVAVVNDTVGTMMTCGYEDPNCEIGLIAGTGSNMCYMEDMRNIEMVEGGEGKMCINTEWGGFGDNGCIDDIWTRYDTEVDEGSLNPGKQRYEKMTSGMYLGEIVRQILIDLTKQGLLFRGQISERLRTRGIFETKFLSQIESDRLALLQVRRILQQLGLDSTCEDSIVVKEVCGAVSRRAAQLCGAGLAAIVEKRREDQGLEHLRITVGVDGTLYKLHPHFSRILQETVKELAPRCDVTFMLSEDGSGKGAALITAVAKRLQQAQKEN

[1] = microbe, parasite or virus in culture; format: functional; settings: Mycobacterium tuberculosis
[2] = THP-1 cell cytotoxicity, dose response, cytotoxicity control for non-replicating M. tuberculosis project (AID 489025); format: functional
[3] = HepG2 cell cytotoxicity, dose response, cytotoxicity control for non-replicating M. tuberculosis project (AID 489018); format: functional; settings: Mycobacterium tuberculosis
[4] = Vero E6 cell cytotoxicity, dose response, cytotoxicity control for non-replicating M. tuberculosis project, secondary assay (AID 492998); format: functional, VeroE6; settings: Vero C1008
cells [5] = format: functional
Vero = assay: cells; format: functional; settings: Chlorocebus sabaeus
[6] = molecular target: DNA damage-inducible transcript 3 protein (Mus musculus, UniProt P35639); format: functional, Cricetulus griseus
Sequence of DNA damage-inducible transcript 3 protein (P35639 whole entry): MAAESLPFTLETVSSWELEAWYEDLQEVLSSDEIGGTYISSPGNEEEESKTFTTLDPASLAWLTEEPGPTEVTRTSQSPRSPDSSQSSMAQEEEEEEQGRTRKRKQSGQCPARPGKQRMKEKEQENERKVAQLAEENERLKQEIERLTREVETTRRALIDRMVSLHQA

X-box-binding protein 1 = X-box-binding protein 1 (Homo sapiens, UniProt P17861); format: functional, Cricetulus griseus;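 note: confirmatory dose-response counter-screen serving a CHOP assay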
Sequence of X-box-binding protein 1 (P17861 whole entry): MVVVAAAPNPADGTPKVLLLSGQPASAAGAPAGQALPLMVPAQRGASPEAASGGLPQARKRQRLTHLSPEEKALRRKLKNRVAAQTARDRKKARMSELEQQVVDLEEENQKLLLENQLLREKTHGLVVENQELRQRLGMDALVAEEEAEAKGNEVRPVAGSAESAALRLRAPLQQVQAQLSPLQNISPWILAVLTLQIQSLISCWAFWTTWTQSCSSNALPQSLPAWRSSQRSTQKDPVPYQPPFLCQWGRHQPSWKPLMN

Bcl-2-like protein 10 = molecular target: T2, Bcl-2-like protein 10 (Homo sapiens, UniProt Q9HD36); assay: Bcl-B/TR3 peptide binding disruption – biochemical, fluorescence polarization, FITC-TR3 peptide, selectivity assay for Bfl-1 inhibitor project, primary screen (AID 748);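 note: fluorescence polarization from a fluorescein-labelled TR3 peptide binding purified Bcl-B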
T2 sequence (Q9HD36 whole entry): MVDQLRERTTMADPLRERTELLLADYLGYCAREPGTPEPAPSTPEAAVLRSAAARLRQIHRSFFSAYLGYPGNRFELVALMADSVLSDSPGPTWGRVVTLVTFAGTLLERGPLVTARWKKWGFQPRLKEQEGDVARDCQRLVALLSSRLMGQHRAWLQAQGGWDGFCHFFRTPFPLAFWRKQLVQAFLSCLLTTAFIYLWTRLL

cells [7] = format: functional, cell-based
cells [8] = format: functional, cell-based; remark: listed apart in the source
[9] = molecular target: Induced myeloid leukemia cell differentiation protein Mcl-1 (Homo sapiens, UniProt Q07820); format: functional
Sequence of Induced myeloid leukemia cell differentiation protein Mcl-1 (Q07820 whole entry): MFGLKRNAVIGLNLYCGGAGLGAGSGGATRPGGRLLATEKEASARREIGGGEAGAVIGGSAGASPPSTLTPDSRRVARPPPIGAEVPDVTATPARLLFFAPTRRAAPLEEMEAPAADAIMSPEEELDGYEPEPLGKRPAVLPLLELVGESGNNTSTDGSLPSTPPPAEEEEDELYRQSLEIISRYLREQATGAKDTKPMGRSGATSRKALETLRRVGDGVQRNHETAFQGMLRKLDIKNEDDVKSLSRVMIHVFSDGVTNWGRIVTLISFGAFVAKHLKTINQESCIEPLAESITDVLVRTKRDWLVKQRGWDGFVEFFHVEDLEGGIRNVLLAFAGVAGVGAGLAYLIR

Structure (SMILES): Cc1cccc(N2C(=O)NC(=O)/C(=C\c3ccc4c(c3)CCCN4Cc3ccccc3)C2=O)c1
- IC50 (Hexokinase HKDC1): 27.6 µM (inactive)

Structure (SMILES): O=C(c1ccc(Cl)cc1)N1N=C(c2ccccn2)CC1(O)C(F)(F)F (stereo not drawn)
- CC50 [1]: 32.6 µM (active)
- CC50 [2]: 11.6 µM (active)
- CC50 [3]: 15.2 µM (active)
- CC50 [4]: 13.3 µM (active)
- IC50 (cells [5]): 3.69 µM (active)
- CC50 (Vero): 20.4 µM (active)

Structure (SMILES): Clc1ccc(-c2csc(N/N=C/c3cccnc3)n2)c(Cl)c1
- Absolute IC50 (CHOP) [6]: 10 µM
- Absolute IC50 (XBP1) (X-box-binding protein 1): 10 µM

Structure (SMILES): Cc1ccc(N=Nc2ccc(O)c(/C=N\NC(=O)c3ccc(N)cc3)c2)cc1C
- IC50 (Bcl-2-like protein 10): > 100 µM (inactive)
- EC50 (cells [7]): > 350 µM (not active)
- EC50 (cells [8]): > 350 µM (not active)
- IC50 [9]: 2.62 µM (active)

Source: ChEMBL document CHEMBL1201862, “PubChem BioAssay data set” (2004)
